Here are results for four compounds from article PMC12030059, “Mechanistic Advances in the Therapeutic Application of Bixin for Lung Inflammation In Vitro and In Vivo” (Pharmaceuticals, 2025).

A short description of data set [1]: PAMPA-GIT permeability assay. Type of data set: in vitro ADME. To be noted: for Papp: read-out: Experimental Pe; for Experimental Fa: absorbed fraction; for Classification (intestinal permeability): by absorbed fraction. The source says:
The parallel artificial membrane permeability assay (PAMPA) utilizes a 96-well plate system in a “sandwich” format, where one plate is positioned above another (PAMPA). The upper plate, known as the donor compartment, contains the compounds (test or control) dissolved in a buffered solution. […] The lipid composition of the PVDF filter varies depending on the type of permeability test. For gastrointestinal tract (GIT) permeability assessments, L-α-soy phosphatidylcholine in dodecane is used. Optical density values are measured at specified wavelengths for each compound and compared against controls. For GIT permeability, the absorbed fraction (Fa%) and permeability (Pe) are determined. […] Compounds for these assays were diluted from a 10 mM stock solution. These assays were conducted using a 1 mg/mL stock solution per compound.
Background: The PAMPA barrier holds no transporters, so it reflects passive diffusion.

For data set [2] the following is noted: ref C. Zhu et al. Eur. J. Med. Chem. 37 (2002) 399–407 [22], cited from earlier work.
Setting [3] is: L-α-soy phosphatidylcholine in dodecane.

Regarding `CO/N=C(\C(=O)N[C@@H]1C(=O)N2C(C(=O)O)=C(CSc3nc(=O)c(=O)[nH]n3C)CS[C@H]12)c1csc(N)n1` [Ceftriaxone, ceftriaxone], in data set [1] (setting [3]), the Papp was determined as 0.53 ×10⁻⁶ cm/s. Besides, in data set [1], the “Experimental Fa” value came to 18.19% and the “Classification (intestinal permeability)” value is on record as “Low (low (0–29%))”. Besides, the “Literature Fa” value in data set [2] (absorbed fraction) is 1%. Further, the “Literature Pe” value in data set [2] (artificial membrane permeability) is reported as 0.1 10^−6 cm/s.
With `O=c1ccc2ccccc2o1` [Coumarin, coumarin], the Papp in data set [1] (setting [3]) came to 25.2 ×10⁻⁶ cm/s. In data set [1], the “Experimental Fa” value is reported as 99.99% and the “Classification (intestinal permeability)” value is reported as “High (high (70–100%))”.
Turning to `CCn1cc(C(=O)O)c(=O)c2cc(F)c(N3CCNCC3)cc21` [Norfloxacin, norfloxacin], the Papp in data set [1] (setting [3]) turned out to be 1.56 ×10⁻⁶ cm/s. Besides, the “Classification (intestinal permeability)” value in data set [1] is recorded as “Medium (medium (30–69%))”.
In the case of `Nc1nc2c(ncn2COCCO)c(=O)[nH]1` [Acyclovir, acyclovir], in data set [1] (setting [3]), the “Experimental Pe” value is 0.36 10^−6 cm/s. Also, the “Experimental Fa” value in data set [1] came to 12.64%.
